The term TGI denotes the concentration at which net growth stops. High values mean lower sensitivity of the cells, low ones greater sensitivity of the cells.

The structures appear in SMILES notation.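 Each compound was tested at five concentrations against cells in 96-well plates for 48 hours. TGI: concentration producing complete growth inhibition.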

Test systems include K-562 leukemia; NCI-H226 lung; SK-OV-3 ovarian; OVCAR-5 ovarian; SNB-75 CNS; SR leukemia; SF-268 CNS; A498 renal; TK-10 renal; HOP-92 NSCLC; COLO 205 colon.
Holding throughout (assay): DTP human tumour cell line panel, 48 h

As to `CN(C)CCC[N+]1=Nc2cccc3cccc(c23)N1`, the TGI in the assay with K-562 leukemia is more than 100 µM; with NCI-H226 lung, more than 100 µM; with SK-OV-3 ovarian, more than 100 µM; in the assay on OVCAR-5 ovarian, more than 100 µM; in the assay with SNB-75 CNS, more than 100 µM; with SR leukemia, 35.5 µM. In addition, the TGI in the assay on SF-268 CNS is more than 100 µM; with A498 renal, 92.6 µM; with TK-10 renal, more than 100 µM; in the assay with HOP-92 NSCLC, more than 100 µM.

As for `COc1ccc(C2=Nc3ccccc3N=C(SC)C2)cc1`, the TGI is 53.2 µM with K-562 leukemia; more than 100 µM in the assay with NCI-H226 lung; more than 100 µM in the assay on SK-OV-3 ovarian; more than 100 µM in the assay on OVCAR-5 ovarian; more than 100 µM in the assay with SNB-75 CNS; more than 100 µM in the assay on SR leukemia. Also, the TGI in the assay with SF-268 CNS was more than 100 µM; in the assay with A498 renal, more than 100 µM; in the assay on TK-10 renal it was more than 100 µM; in the assay with COLO 205 colon it was more than 100 µM; in the assay on HOP-92 NSCLC it was 61.9 µM.

On to `O=C(CC(C(=O)c1cccs1)c1ccsc1)c1ccc(Cl)s1` (stereo not given), for which the TGI in the assay on K-562 leukemia, with NCI-H226 lung, with SK-OV-3 ovarian, with OVCAR-5 ovarian, in the assay with SNB-75 CNS and with SR leukemia was more than 100 µM in each case. The TGI with SF-268 CNS, in the assay on A498 renal, in the assay with TK-10 renal and in the assay on COLO 205 colon was more than 100 µM throughout.

In the case of `NC(=S)N1N=C2c3ccccc3CCC[C@H]2[C@@H]1c1ccccc1`, the TGI with K-562 leukemia was more than 37.9 µM; with NCI-H226 lung, 11.1 µM; with SK-OV-3 ovarian it was 2.77 µM; with OVCAR-5 ovarian, 55.5 µM; in the assay with SNB-75 CNS it was 0.9 µM; in the assay with SR leukemia, more than 32.9 µM. Moreover, the TGI in the assay on SF-268 CNS was determined as 39.4 µM; in the assay on A498 renal it was 23.3 µM; in the assay with TK-10 renal, 52 µM; with COLO 205 colon, 6.32 µM.

Turning to `COc1ccc(/C=C/C(=O)c2ccc(Br)cc2)cc1`, the TGI in the assay on K-562 leukemia, in the assay on NCI-H226 lung, in the assay on SK-OV-3 ovarian, with OVCAR-5 ovarian, in the assay on SNB-75 CNS and with SR leukemia was more than 100 µM in each case. The TGI with SF-268 CNS, in the assay on A498 renal, in the assay on TK-10 renal and in the assay with COLO 205 colon was more than 100 µM in each case.

As to `CCCN(CCC)C(=O)c1c(N2CCN(C)CC2)c2cccnc2n2c(C)cnc12`, the TGI in the assay on K-562 leukemia, with NCI-H226 lung, with OVCAR-5 ovarian, in the assay with SNB-75 CNS, in the assay with SR leukemia and with SF-268 CNS was more than 100 µM each time. The TGI with A498 renal, in the assay with TK-10 renal, in the assay on COLO 205 colon and in the assay on HOP-92 NSCLC was more than 100 µM in each case.

On to `CSc1ncc2c(n1)-c1ccccc1OC2`, for which the TGI in the assay with NCI-H226 lung, in the assay on SK-OV-3 ovarian, in the assay with OVCAR-5 ovarian, with SNB-75 CNS, in the assay on SR leukemia and in the assay on SF-268 CNS was more than 100 µM throughout. Moreover, the TGI with A498 renal was 73.6 µM; with TK-10 renal, more than 100 µM; in the assay with COLO 205 colon, more than 100 µM; in the assay with HOP-92 NSCLC, 86.9 µM.

`CCOS(=O)(=O)c1ccc(-c2c3nc(c(-c4ccc(S(=O)(=O)OCC)cc4)c4ccc([nH]4)c(-c4ccc(S(=O)(=O)OCC)cc4)c4nc(c(-c5ccc(S(=O)(=O)OCC)cc5)c5ccc2[nH]5)C=C4)C=C3)cc1`: the TGI is more than 100 µM with NCI-H226 lung; more than 31.6 µM in the assay with SK-OV-3 ovarian; more than 31.6 µM in the assay on OVCAR-5 ovarian; more than 31.6 µM in the assay with SR leukemia; more than 31.6 µM in the assay with SF-268 CNS; more than 31.6 µM with A498 renal. Also, the TGI with TK-10 renal was more than 31.6 µM; in the assay on COLO 205 colon it was more than 31.6 µM; in the assay with HOP-92 NSCLC, more than 100 µM.

Consider `COc1ccc2[nH]c3c(c2c1)CC(=O)N1CCC[C@H](C1)CC31OCCCO1`, for which the TGI with NCI-H226 lung, in the assay on SK-OV-3 ovarian, with OVCAR-5 ovarian, in the assay on SNB-75 CNS, in the assay on SR leukemia and with SF-268 CNS was more than 100 µM each time. Besides, the TGI in the assay on A498 renal, in the assay with TK-10 renal, with COLO 205 colon and in the assay with HOP-92 NSCLC was more than 100 µM in each case.

Take `C=CCOC(=O)Cn1ccc(=O)[nH]c1=O`: the TGI in the assay on K-562 leukemia, in the assay with NCI-H226 lung, in the assay with SK-OV-3 ovarian, with OVCAR-5 ovarian, with SNB-75 CNS and in the assay on SR leukemia was more than 100 µM throughout. Moreover, the TGI with SF-268 CNS, in the assay with A498 renal, in the assay with TK-10 renal and in the assay on COLO 205 colon was more than 100 µM each time.

With `O=C1Nc2ccc(Br)cc2/C1=N/N1C(=O)C(=O)N(C2CCCCC2)C1=S`, the TGI in the assay on K-562 leukemia was 12.6 µM; with NCI-H226 lung it was 23.5 µM; in the assay on SK-OV-3 ovarian, 21.9 µM; with OVCAR-5 ovarian it was 28.9 µM; in the assay on SR leukemia it was 10.6 µM; in the assay with SF-268 CNS, 30.3 µM. Moreover, the TGI in the assay with A498 renal was 13.9 µM; in the assay with TK-10 renal, 35 µM; with COLO 205 colon, 10.4 µM; in the assay on HOP-92 NSCLC, 53.7 µM.

With `O=C1CC(c2ccccc2)n2c(nc3ccccc32)N1` (stereo not given), the TGI with K-562 leukemia, in the assay on NCI-H226 lung, with SK-OV-3 ovarian, in the assay on OVCAR-5 ovarian, in the assay on SR leukemia and in the assay with SF-268 CNS was more than 100 µM in each case. Besides, the TGI with A498 renal, in the assay on TK-10 renal, with COLO 205 colon and with HOP-92 NSCLC was more than 100 µM each time.

With `Cn1cc2c3ccccc3nc-2c2ccccc21`, the TGI was 9.65 µM in the assay on K-562 leukemia; 9.3 µM in the assay on SK-OV-3 ovarian; 6.84 µM with OVCAR-5 ovarian; 6.6 µM in the assay with SNB-75 CNS; 2.1 µM in the assay with SR leukemia; 6.86 µM in the assay on SF-268 CNS. In addition, the TGI came out at 3.27 µM in the assay with A498 renal, 20.6 µM with TK-10 renal, 3.07 µM in the assay on COLO 205 colon and 4.3 µM in the assay on HOP-92 NSCLC.

The values above are taken from PubChem BioAssay (NCI).
